From a melting point compilation (Tetko et al.; mined from patent text by program, amines drawn as free bases though some values may be those of a salt)

Row | SMILES | melting point [°C]
1 | CCC(OC(C)=O)c1ccc(Cl)c2nc3n(c12)CCCN3c1ccc(OC)nc1C (stereo not given) | 157 to 159
2 | O=[N+]([O-])C=C1CCCN1C1=CC(CF)(CF)Oc2ccc(C(F)(F)C(F)(F)F)cc21 | 195 to 197
3 | CON=C(C(=O)O)c1csc(NC(=O)CCl)n1 | 182 to 183
4 | Cc1cc(N2CCc3ncccc3C2)nc(N2CCCC2)c1NC(=O)Cc1cc(F)cc(F)c1 | 203 to 206
5 | CCOC(=O)C1CCc2scnc2C1=O (stereo not given) | 81 to 82
6 | COc1ccc2c3c(c(=O)oc2c1)CN(Cc1ccc(Cl)c(Cl)c1)CC3 | 144 to 146
7 | CNC(=S)C(OC)c1ccccn1 (stereo not given) | 104 to 105
8 | Cc1ccc(C(=O)c2[nH]c3ccc(Cl)cc3c2CC(=O)O)nc1 | 247 to 248
9 | CCCCc1nc(S(=O)(=O)c2ccc(OC)cc2)c(C(=O)O)n1Cc1cc2c(cc1Cl)OCO2 | 154
10 | OCc1cn2c(n1)CN=C(c1ccccc1)c1cc(C(F)(F)F)ccc1-2 | 193 to 194
11 | CC1(C)Oc2ccc(C#N)cc2[C@H](N)[C@@H]1O (relative stereo) | 85 to 86
12 | NC(=O)C1CCc2cc(C3CCCCCC3)c(Cl)cc21 (stereo not given) | 170 to 171
13 | Cc1nnc2n1-c1ccc(C#CCn3ncc4ccccc43)cc1C(c1ccccc1F)=NC2 | 148 to 151
14 | COc1ccc(-c2cc(=O)n(Cc3ccc(F)cc3)nc2-c2ccc(OC)cc2)cc1 | 132 to 133
15 | O=C(Oc1ccc(Oc2ccc(C(F)(F)F)cn2)cc1)N1CCS(=O)CC1 | 156 to 157
16 | CCNP(=O)(Cc1ccc(NC(=O)C2=Cc3cc(C4CCCCC4)ccc3CC2)cc1)NCC | 163 to 165
17 | COc1cc(C)nc(NCn2cncn2)n1 | 191 to 193
18 | O=c1[nH]c(N[N+](=O)[O-])ncc1Cc1ccn(Cc2ccccc2)c(=O)c1 | 200 to 201
19 | Cc1ccc(C#CC(C)N(O)C(N)=O)cc1 (stereo not given) | 144
20 | CC1(C)NC(=O)OC12CCNCC2 | 38 to 40
21 | CC12CCC(F)CC1=CCC1C2CCC2(C)C(O)CCC12 (stereo not given) | 165 to 166
22 | FC(F)Oc1ccc(CN(C(=Nc2ccccc2)N(Cc2ccc(OC(F)F)cc2)C2CCCC2)C2CCCC2)cc1 | 86.5 to 88
23 | CCCc1nc2c(N)nc(C)c(C)c2n1CCCCCS(=O)(=O)c1ccc(F)cc1 | 130 to 132
24 | CCCC(=O)c1c[nH]c2c(OC)cccc2c1=O | 200 to 202
25 | CCOC(=O)C1=C(OCC)C(OCC)=NS1(=O)=O | 129 to 133
26 | OCC1CNCCC1c1ccc(F)cc1 (stereo not given) | 123 to 124
27 | COc1ccc(CCN2CCN(C(=O)c3ccc(N(CCOC(C)C)C(=O)CCl)cc3)CC2)cc1 | 139 to 140

Row | SMILES | melting point [°C]
28 | CCCCCc1ccc(CCc2ccc(-c3ccc(CC)cc3F)cc2)cc1 | 40
29 | CCOCN1N=NC(=S)C1C (stereo not given) | 137 to 138
30 | COc1cc(C(C)C)c2c(c1)S(=O)(=O)N(COc1cc(C(F)(F)F)nn1-c1ccc(Cl)cn1)C2=O | 173 to 174
31 | CC(C)c1ccc(C(=O)N2CCOCC2)cc1N | 112 to 115
32 | CCn1c(C)nc2cc(S(C)(=O)=O)c(Cl)c(N)c21 | 179 to 186
33 | Cc1cccc(C2c3cc(NC(=O)CC(C)(C)C)c(C)c(C)c3OC2(C)C)c1 (stereo not given) | 156 to 157
34 | Cc1cc(Nc2ccnc(Nc3ccc(S(=O)(=O)N(C)C4CCN(Cc5csnn5)CC4)cc3)n2)ccc1F | 168
35 | COC(=O)CCC(=O)c1ccc(OCc2ccsc2)cc1O | 100 to 102
36 | CCCC1=C(C(=O)OCC)C(c2cccc([N+](=O)[O-])c2)C(C(=O)OCC)=C(C)N1COCC (stereo not given) | 97
37 | Cc1cc(Br)cc(/C=N/O)c1F | 126 to 127
38 | CSc1nc(C#N)c(I)c(C(F)(F)F)n1 | 68 to 69
39 | NS(=O)(=O)c1ccc(C=Nc2ccc(SSc3ccc(N=Cc4ccc(S(N)(=O)=O)cc4)cc3)cc2)cc1 | 200 to 230
40 | CC(C)CC(C#N)NC(=O)C(CC(C)C)NC(=O)c1ccc(Cn2ccnc2)cc1 (stereo not given) | 100 to 103
41 | Cc1cccc(C(=O)O)c1N(C)S(=O)(=O)c1ccc(OCCCCNC(=O)c2ccc3c(c2)OCO3)cc1 | 110
42 | CCOC(=O)CN(C)C=C(Cl)C#N | 57
43 | CCOc1ccc(C(C)=O)cc1C(=O)O | 122 to 125
44 | CCCn1c(=O)c2[nH]c(/C=C/c3ccc(OCC)cc3)nc2n(CCC)c1=O | 262
45 | CC(=NO)C(C)(C)NCCCNC(C)(C)C(COCC(O)Cn1ccnc1[N+](=O)[O-])=NO (stereo not given) | 72 to 73
46 | COc1ccc(-c2nn(C(C)C)c(=O)c3ccsc23)cc1 | 124 to 126
47 | CN(C)CSc1ccc(-n2cnnn2)cc1 | 56 to 57.5
48 | C#Cc1ccc(C2(C3CCCCCCC3)CCCCCCC2)cc1 | 167
49 | COC(=O)[C@@H]1CCCCOc2ccc(cc2)C[C@H](NC(=O)OC(C)(C)C)C(=O)N[C@@H](C(C)C)C(=O)N1 | 225 to 228
50 | O=[N+]([O-])c1nccn1C1CCCO1 (stereo not given) | 91
51 | O=C(O)c1cn(-n2cnnc2)c2cc(F)c(F)cc2c1=O | 270
52 | CC(c1c[nH]cn1)c1cccc(C(=N)N)c1O (stereo not given) | 191
53 | COc1ccc(C2CC(=O)OC(=O)C2)cc1OC | 118 to 120

The remaining lines, values ahead:

Row | melting point [°C] | SMILES
54 | 128 to 129 | Cc1ccc2ncc(CSc3ccc(N)cc3)n2c1
55 | 287 to 289 | NC(=O)c1c(-c2ccc(F)cc2)cc2c3c1ccn3C(=O)CNC2
56 | 42 to 46 | COCN(c1c(C)ccc2ccccc12)C1COC(=O)C1 (stereo not given)
57 | 142 to 144 | CCC(C)(Oc1ccc(OCc2cc(-c3ccc(O)cc3)no2)cc1)C(=O)O (stereo not given)
58 | 170 to 172 | CC(C)c1cccc(C(C)C)c1NC(=O)C1c2ccccc2COc2cc(Br)ccc21 (stereo not given)
59 | 208 to 209 | COc1ccc(C=CC(=O)Nc2cnc3ccc(Cl)cc3c2-c2ccccc2Cl)cc1OC
60 | 270 to 275 | COc1cccc(-c2ccc3ccc(N)nc3n2)c1
61 | 295 | COc1ccc(-c2[nH]nc3c2C(=O)c2c(NC(=O)CN4CCOCC4)cccc2-3)cc1
62 | 125 to 126 | Nc1cc(F)c(F)cc1C(=O)NOCc1ccccc1
63 | 135 to 148 | CCNC(=O)C1=C([Si](C)(C)C)S(=O)(=O)c2ccccc21
64 | 195 to 196 | CC(C)Oc1ccc(-c2noc(-c3ccc(CN4CC(C(=O)O)C4)cc3)n2)cc1Cl
65 | 129 to 130 | CC(NC(=O)c1ccccc1I)C(O)c1ccccc1 (stereo not given)
66 | 106 to 108 | CCOC(=O)N1N=C(c2ccc([N+](=O)[O-])cc2)c2cc(Cl)c(Cl)cc2CC1C (stereo not given)
67 | 105 to 107 | OCC(O)C1OC(Sc2ccccc2)C(O)C1O (stereo not given)
68 | 147 | CN1C(c2cccc(F)c2)c2ccccc2S1(=O)=O (single isomer, unassigned; (+))
69 | 127 to 129 | CN1CC=C(c2c[nH]c3ccc(NC(=N)c4cccs4)cc23)C(F)C1 (stereo not given)
70 | 138 | CC(C)CNc1nc(-c2ccccc2)c(Cl)n2c(Br)cnc12
71 | 146 to 149 | COc1cccc2cccc(S(=O)(=O)N(C)C)c12
72 | 142 to 143 | CCOC(=O)C1C(c2ccc([N+](=O)[O-])cc2)CC(=O)N1C (stereo not given)
73 | 262 to 265 | Nc1ccc(C=CC(=O)N2CCc3c([nH]c4ccccc34)C2c2ccc3c(c2)OCO3)cc1 (stereo not given)
74 | 130 to 132 | Cc1c(C)c2c(c(C)c1N)CC(C)(CN1CCN(CC(c3ccccc3)c3ccccc3)CC1)O2 (stereo not given)
75 | 110 to 113 | CC(=O)Nc1ccc(C=O)cc1Cl
76 | 156 to 157 | COc1ccc([N+](=O)[O-])cc1C=C1COc2ccc(OCc3ccccc3)cc2C1=O
77 | 158 to 160 | O=CNC1=NN(c2ccccc2)C(c2ccccc2)C1 (stereo not given)

Row | melting point [°C] | SMILES
78 | 171 to 173 | CCN1CCN(c2cc3ccccc3c(=O)[nH]2)C[C@@H]1CO
79 | 124 to 126 | O=S(=O)(c1ccc2ccccc2c1)N1C[C@H](O)C[C@H]1COCc1ccccc1
80 | 221 | O=C1CCC(c2ccccc2)(c2ccccc2)[C@@H]2CN(C(=S)Cc3ccccc3)C[C@H]12 (racemic)
81 | 62 to 68 | OC(c1ccccc1Cl)C(c1ccccc1Cl)n1ccnc1 (stereo not given)
82 | 198 to 201 | O=C(c1ccccc1)N1CCc2[nH]c3cccc(-c4cc(F)cc(F)c4)c3c2CC1
83 | 60 to 61 | O=C(OCCCSc1cccc2nccn12)c1ccccc1
84 | 189 to 190 | CN(c1ccc(Cl)cc1)c1nc(=O)c2cccnc2s1
85 | 62 to 64 | N=c1ccccn1COc1ccccc1Br
86 | 124 to 127 | CCOP(=O)(OCC)C(F)(F)c1ccc(CN(Cc2ccc(C(F)(F)P(=O)(OCC)OCC)cc2)C(=O)NCc2ccccc2)cc1
87 | 94.5 to 95.5 | CCOC(=O)CNC(=O)COc1ccc(C=O)cc1
88 | 174 to 178 | CC12CCC3c4ccc(C(=O)O)cc4CCC3C1CCC2C(=O)C#Cc1ccccc1 (stereo not given)
89 | 157 to 158 | CC(CSC(=S)c1ccccc1)C(=O)N1CCCC1C(=O)O (stereo not given)
90 | 170 | O=C(CN1C(=O)c2ccccc2C1=O)Nc1cccc(OC(F)(F)F)c1
91 | 181 to 183 | O=C1CC[C@@H](C(=O)N[C@@H](CSCc2ccccc2)C(=O)O)N1
92 | 166 to 168 | Nc1ccc(C(=O)N2Cc3cccn3Cc3ccccc32)cc1
93 | 151 to 152 | NC(=O)N(O)CC1=NOC(c2ccc(F)cc2)C1 (stereo not given)
94 | 218 to 220 | O=C(Nc1ccc(N2CCN(C(=O)Nc3ccc(OCCO)cc3C(F)(F)F)CC2)cc1)Nc1cccc2c1OCC2
95 | 211 to 214 | CC(C)Oc1ccc(-c2nn(C(C)c3oc4cccc(N5CCOCC5)c4c(=O)c3-c3ccccc3)c3ncnc(N)c23)cc1F (stereo not given)
96 | 191 to 193 | CCOC(=O)c1cnc2c(SSc3ccccc3[N+](=O)[O-])cccn2c1=O
97 | 103 | O=C(Nc1ccccc1SCc1ncon1)c1ccc(Cl)cc1
98 | 190 to 191 | CN1CCN(c2cccc3c2C[C@H](NC(=O)c2ccc(N4CCSCC4)cc2)CC3)CC1
99 | > 300 | Cc1cccc(NC(=O)Nc2c(-c3ccccc3)c3cc(Cl)ccc3c(=O)n2C)c1
100 | 247 to 248 | CN1CN(c2cccc([N+](=O)[O-])c2)c2ncccc2C1=O
